Assay results taken from patent US5663201A, “Desferrioxamine-B salts” (CIBA-GEIGY Corporation, priority 1992, dated 1997).
Structures can show the parent of a compound that is named as a salt. Where two headings read alike, the source gives them in different places.

Key:
[1] = format: physicochemical; details: n-octanol/water, 5000 µM
Description: (§1) The partition coefficients of the salts prepared in Examples 1 to 5 between n-octanol and water are determined by the `shake-flask` method of Leo et at, Chem. Rev., 71(6), 525 (1971).
The n-octanol and aqueous phases are mutually saturated prior to conducting the experiment. The desferrioxamine-B sulphonic acid addition salt is dissolved in the aqueous phase at a concentration of 0.005 mol/l and the partition experiment is performed by shaking the vessel containing the two phases until an equilibrium has been achieved. […] After equilibrium has been achieved, the sample is centrifuged to enable phase separation. Both organic and aqueous phases are analysed for desferrioxamine-B content via extraction of an appropriate aliquot, quenching with an aqueous (for assay of the aqueous phase) or methanolic (for assay of the n-octanol phase) solution of FeCl3, and measurement of the absorption of the characteristic ferrioxamine-B chelate at ca. 450 nm. Respective calibration plots (absorbance vs. concentration of desferrioxamine-B sulphonic acid salt) for the assay of both aqueous and organic phases show a linear response over the concentration range studied. The results obtained are as follows: […]

[2] = format: physicochemical; details: n-octanol/phosphate buffer, pH 7.4
Description: as §1
The n-octanol and aqueous phases are mutually saturated prior to conducting the experiment. The desferrioxamine-B sulphonic acid addition salt is dissolved in the aqueous phase at a concentration of 0.005 mol/l and the partition experiment is performed by shaking the vessel containing the two phases until an equilibrium has been achieved. […] After equilibrium has been achieved, the sample is centrifuged to enable phase separation. Both organic and aqueous phases are analysed for desferrioxamine-B content via extraction of an appropriate aliquot, quenching with an aqueous (for assay of the aqueous phase) or methanolic (for assay of the n-octanol phase) solution of FeCl3, and measurement of the absorption of the characteristic ferrioxamine-B chelate at ca. 450 nm. Respective calibration plots (absorbance vs. concentration of desferrioxamine-B sulphonic acid salt) for the assay of both aqueous and organic phases show a linear response over the concentration range studied. The results obtained are as follows:
The partition coefficients of the salts prepared in Examples 1 to 5 between n-octanol and an aqueous phosphate buffer at pH7.4 having an ionic strength of 0.31 mol/l are determined using the procedure of Examples 6-10. The results obtained are as follows:
The use of n-octanol/aqueous media partition coefficients as a model for the lipophilicity of drugs is well established (see the abovementioned Leo et al reference). The aqueous phase in Examples 11 to 15 simulates physiological conditions.

[3] = intrinsic dissolution of tablets, Langenbucher flow-through apparatus; format: physicochemical; details: water, 25° C.
Description: Tablets are prepared from the salts of Examples 1 and 4 by compressing a mixture of 99 parts of the salt and 1 part of magnesium stearate in a 13mm die for 2 minutes under a pressure of 4×10^5 kPa. The intrinsic dissolution rates of the tablets are determined using a Langenbucher flow-through apparatus, with water at 25° C. as the dissolution medium. The amount of desferrioxamine-B dissolved in the medium is measured at intervals using a spectrophotometric assay at 215 nm.

[4] = test system: Daudi cell line (B-cell lymphoma); test: iron-chelation bioassay: growth inhibiting effect on cells through iron removal, [3H] Thymidine uptake; format: cell-based; details: 72 hours, Control (0 μM): Ex 18 22297, Ex 19 23897, listed as octanesulphonate
Description: The iron-chelating properties of salts of the invention in a biological system are determined by means of a bioassay in which the growth inhibiting effect of the salts on cells through iron removal is measured by the uptake of radioactively labelled thymidine into the cells. The bioassay is carried out using a Daudi cell line (B-cell lymphoma), a Roswell Park Memorial Institute (RPMI) 1640 medium containing 1 µM ferric citrate and supplements as low iron washing medium and RPM11640 together with 5% by weight of foetal calf serum as passaging medium.
The cells are fed 24 hours before use. They are washed twice in the low iron washing medium to remove any excess iron and diluted with this medium to a concentration of 0.2×10^6 cells/0.180 ml. To 0.180 ml aliquots are added 0.02 ml of solutions of the desferrioxamine-B salts under test in phosphate-buffered saline (PBS) to give concentrations ranging from a Control containing no salt to a […] solution. The cells are then incubated at 37° C. in an atmosphere containing 5% by volume of carbon dioxide for 72 hours, being pulsed for the last 8 hours of that time with labelled [^3 H] Thymidine at 5 micro Ci/ml. The resulting cells are harvested and their radioactive disintegrations are counted for 10 minutes. The results are shown in the table below as the average of 4 separate experiments (except the Control result in Example 18 which is the average of 3 separate experiments).

[5] = in words, U.S. Pat. No. 3,247,197; cited from earlier work

For `CC(=O)N(O)CCCCCNC(=O)CCC(=O)N(O)CCCCCNC(=O)CCC(=O)N(O)CCCCCN` [Example 4, octane-1-sulphonate salt of desferrioxamine-B], the “Partition Coefficient” value [1] was 0.121, the “Partition Coefficient” value [2] was 0.047 and the “% Desferrioxaine-B salt dissolved” value ([3]; 1 min, listed as octanesulphonate) was 1.71%. The “% Desferrioxaine-B salt dissolved” value ([3]; 2 min, listed as octanesulphonate) was 3.07%, the “% Desferrioxaine-B salt dissolved” value ([3]; 5 min, listed as octanesulphonate) was 6.88% and the “% Desferrioxaine-B salt dissolved” value ([3]; 10 min, listed as octanesulphonate) was 10.56%. The “% Desferrioxaine-B salt dissolved” value ([3]; 15 min, listed as octanesulphonate) was 14.22%, the “% Desferrioxaine-B salt dissolved” value ([3]; 20 min, listed as octanesulphonate) was 17.94% and the “% Desferrioxaine-B salt dissolved” value ([3]; 30 min, listed as octanesulphonate) was 24.73%. For the same molecule, the “% Desferrioxaine-B salt dissolved” value ([3]; 50 min, listed as octanesulphonate) was 37.09%, the “% Desferrioxaine-B salt dissolved” value ([3]; 75 min, listed as octanesulphonate) was 48.75% and the “% Desferrioxaine-B salt dissolved” value ([3]; 100 min, listed as octanesulphonate) was 58.34%. For the same molecule, the “% Desferrioxaine-B salt dissolved” value ([3]; 125 min, listed as octanesulphonate) was 66.38%, the “% Desferrioxaine-B salt dissolved” value ([3]; 150 min) was 72.38% and the “% Desferrioxaine-B salt dissolved” value ([3]; 175 min, listed as octanesulphonate) was 79.13%. The “% Desferrioxaine-B salt dissolved” value ([3]; 200 min, listed as octanesulphonate) was 84.91%, the “% Desferrioxaine-B salt dissolved” value ([3]; 225 min, listed as octanesulphonate) was 89.25% and the “% Desferrioxaine-B salt dissolved” value ([3]; 250 min, listed as octanesulphonate) was 92.50%. For the same molecule, the “% Desferrioxaine-B salt dissolved” value ([3]; 275 min, listed as octanesulphonate) was 94.91%, the “% Desferrioxaine-B salt dissolved” value ([3]; 300 min, listed as octanesulphonate) was 96.34% and the “intrinsic rate of release into the aqueous dissolution medium” value ([3]; in words) was “slow”. The “Disintegrations Per Minute ([3H] Thymidine uptake)” value (“Disintegrations Per Minute” for short) ([4]; 0.5 μM salt) was 21830 Disintegrations Per Minute, the “Disintegrations Per Minute” value ([4]; 1 μM salt) was 14765 Disintegrations Per Minute and the “Disintegrations Per Minute” value ([4]; 2 μM salt) was 7651 Disintegrations Per Minute. For the same molecule, the “Disintegrations Per Minute” value ([4]; 3 μM salt) was 7109 Disintegrations Per Minute, the “Disintegrations Per Minute” value ([4]; 4 μM salt) was 6280 Disintegrations Per Minute and the “Disintegrations Per Minute” value ([4]; 5 μM salt) was 5373 Disintegrations Per Minute. The “Disintegrations Per Minute” value ([4]; 6 μM salt) was 4122 Disintegrations Per Minute, the “Disintegrations Per Minute” value ([4]; 7.5 μM salt) was 3716 Disintegrations Per Minute and the “Disintegrations Per Minute” value ([4]; 10 μM salt) was 2292 Disintegrations Per Minute. For the same molecule, the “Disintegrations Per Minute” value ([4]; 15 μM salt) was 1065 Disintegrations Per Minute and the “Disintegrations Per Minute” value ([4]; 20 μM salt) was 482 Disintegrations Per Minute.

In the case of `CC(=O)N(O)CCCCCNC(=O)CCC(=O)N(O)CCCCCNC(=O)CCC(=O)N(O)CCCCCN` [desferrioxamine-B], the “ability to form stable complexes with trivalent metal ions” value [5] is listed as “marked ability to form stable complexes with trivalent metal ions, especially Fe^3+”.
